Some test systems named below: OVCAR-3; SNB-19; SF-295; OVCAR-8; MOLT-4; SK-MEL-28; HCC 2998; OVCAR-4; SN12C; HCT-15; Malme-3M; SF-539; M14; SK-MEL-5; A549; RXF 393; HOP-92.
What all share (experiment): NCI anticancer screen, dose series, 48 h

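Five concentrations, 48 hours, 96-well plates. GI50: concentration for 50% inhibition of growth.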 Active and inactive are the calls of the source. Rule as the data show it: active = GI50 up to about 1.1 µM and inactive = higher.

With `N=C(N)SCCc1cn2ccccc2n1`, the GI50 in the test with OVCAR-3, in the test on SNB-19, in the test with SF-295, with OVCAR-8, in the test on MOLT-4 and in the test with SK-MEL-28 was > 100 µM (inactive) in each case. Also, the GI50 is > 100 µM (inactive) in the test on HCC 2998; > 100 µM (inactive) in the test on OVCAR-4; > 100 µM (inactive) in the test on SN12C; above 100 µM with HCT-15; > 100 µM (inactive) in the test on Malme-3M; > 100 µM (inactive) in the test with SF-539. The GI50 is > 100 µM (inactive) in the test with M14, 6.92 µM (inactive) in the test on SK-MEL-5 and > 100 µM (inactive) with A549.

Regarding `Cc1cc2c(cc1C)[n+]([O-])c(C(=O)/C=C/c1ccccc1Cl)c(C)[n+]2[O-]`, the GI50 in the test with OVCAR-3 is 28.7 µM (inactive); in the test on SNB-19, 43.2 µM (inactive); in the test on SF-295 it was 32.1 µM (inactive); in the test on OVCAR-8, 26.1 µM (inactive); with MOLT-4, 39.5 µM (inactive); in the test with SK-MEL-28 it was 26.9 µM (inactive). Further, the GI50 was 17.1 µM (inactive) in the test on HCC 2998; 50.7 µM (inactive) in the test on OVCAR-4; 33 µM (inactive) with SN12C; 22.5 µM with HCT-15; 31.8 µM (inactive) with Malme-3M; 19.9 µM (inactive) in the test with SF-539. Further, the GI50 with M14 is 24.1 µM (inactive); in the test with SK-MEL-5 it was 24.4 µM (inactive); with A549, 33.9 µM (inactive).

Consider `CN1C(=O)CCC1(O)C1C=CC=CC1` (centres undefined), for which the GI50 in the test on OVCAR-3, in the test on SNB-19, in the test on SF-295, with OVCAR-8, in the test with MOLT-4 and in the test with SK-MEL-28 was > 100 µM (inactive) throughout. The GI50 was > 100 µM (inactive) in the test on HCC 2998; > 100 µM (inactive) in the test with OVCAR-4; > 100 µM (inactive) with SN12C; > 100 µM (inactive) in the test on RXF 393; above 100 µM in the test with HCT-15; > 100 µM (inactive) in the test on Malme-3M. Besides, the GI50 in the test on SF-539, with M14, in the test on SK-MEL-5 and in the test on A549 was > 100 µM (inactive) in each case.

On to `Cc1ccc(NC(=O)CCC(=O)C(C#N)c2ccccc2)cc1C` (centres undefined), for which the GI50 in the test with OVCAR-3, in the test on SNB-19, in the test with SF-295, in the test with HOP-92, in the test on OVCAR-8 and in the test with MOLT-4 was > 100 µM (inactive) each time. Further, the GI50 in the test on HCC 2998 is > 100 µM (inactive); in the test with OVCAR-4 it was > 100 µM (inactive); in the test with SN12C, > 100 µM (inactive); in the test on HCT-15, above 100 µM; with Malme-3M it was > 100 µM (inactive); in the test on SF-539 it was > 100 µM (inactive). Further, the GI50 in the test on M14, in the test on SK-MEL-5 and with A549 was > 100 µM (inactive) each time.

For the compound `Nc1c(Cl)ncnc1NCCCNc1ncnc(Cl)c1N`, the GI50 in the test on OVCAR-3, in the test on SNB-19, in the test with SF-295, in the test on HOP-92, in the test with OVCAR-8 and with MOLT-4 was > 100 µM (inactive) in each case. For the same compound, the GI50 in the test with SK-MEL-28 is > 100 µM (inactive); in the test with HCC 2998, > 100 µM (inactive); in the test on OVCAR-4, > 100 µM (inactive); in the test with SN12C it was > 100 µM (inactive); in the test with RXF 393 it was > 100 µM (inactive); in the test on HCT-15 it was above 100 µM. Further, the GI50 in the test with SF-539, in the test on M14, in the test on SK-MEL-5 and in the test on A549 was > 100 µM (inactive) each time.

Take `COC(=O)C1[C@H](c2ccc3c(c2)OCO3)OC(=O)[C@]1(C(=O)OC)C(=O)c1ccc(OC)c(OC)c1` (some centres undefined): the GI50 in the test with OVCAR-3 was 75.5 µM (inactive); with SF-295, > 100 µM (inactive); in the test with HOP-92, 44.4 µM (inactive); in the test with OVCAR-8, 42.1 µM (inactive); with MOLT-4, 20.5 µM (inactive); in the test on HCC 2998 it was 34.7 µM (inactive). The GI50 was > 100 µM (inactive) in the test with OVCAR-4; 48.9 µM (inactive) in the test on SN12C; 33.7 µM with HCT-15; 84.9 µM (inactive) in the test with Malme-3M; > 10 µM (inactive) in the test on SF-539; 70.1 µM (inactive) in the test on M14. For the same compound, the GI50 with SK-MEL-5 was 56.2 µM (inactive).

`COc1cc(C2C(Cl)C(=O)N2n2cnc3ccccc3c2=O)cc(OC)c1OC` (centres undefined): the GI50 is > 100 µM (inactive) with OVCAR-3; > 100 µM (inactive) in the test with SNB-19; > 100 µM (inactive) in the test with SF-295; > 100 µM (inactive) in the test with OVCAR-8; 59.2 µM (inactive) with MOLT-4; > 100 µM (inactive) in the test on SK-MEL-28. Besides, the GI50 in the test with HCC 2998 was > 100 µM (inactive); in the test with OVCAR-4 it was 82.2 µM (inactive); with SN12C it was > 100 µM (inactive); in the test with RXF 393, > 100 µM (inactive); with HCT-15 it was 63.7 µM; with Malme-3M, > 100 µM (inactive). Also, the figures for the GI50 in the test on M14, in the test on SK-MEL-5 and in the test on A549 were 84.5 µM (inactive), > 100 µM (inactive) and > 100 µM (inactive), respectively.

On to `COc1cc(CNc2ccc(C(C)C)cc2)cc(OC)c1OC`, for which the GI50 was 29.6 µM (inactive) in the test on SNB-19; 20.3 µM (inactive) with HOP-92; 28 µM (inactive) with OVCAR-8; 22.4 µM (inactive) with MOLT-4; 27 µM (inactive) in the test on SK-MEL-28; 25.3 µM (inactive) with OVCAR-4. Also, the GI50 is 17.4 µM (inactive) in the test on SN12C; 0.693 µM (active) with RXF 393; 16.9 µM with HCT-15; 19.5 µM (inactive) in the test on Malme-3M; 20.3 µM (inactive) in the test with SF-539; 14.7 µM (inactive) in the test on SK-MEL-5. Also, the GI50 with A549 was 13 µM (inactive).

In the case of `O=C(N/C(=C\c1ccc([N+](=O)[O-])cc1)c1nc2ccccc2[nH]1)c1ccccc1`, the GI50 with SNB-19 is > 100 µM (inactive); in the test with SF-295, > 100 µM (inactive); with HOP-92, 45.6 µM (inactive); in the test on OVCAR-8 it was > 100 µM (inactive); in the test on MOLT-4, > 100 µM (inactive); in the test on SK-MEL-28, > 100 µM (inactive). Further, the GI50 with HCC 2998 was > 100 µM (inactive); with OVCAR-4 it was > 100 µM (inactive); with SN12C, > 100 µM (inactive); in the test with RXF 393, > 100 µM (inactive); with HCT-15, 45.5 µM; with Malme-3M it was > 100 µM (inactive). Also, the GI50 with SF-539 is > 100 µM (inactive); in the test on M14, > 100 µM (inactive); in the test on SK-MEL-5, 86.9 µM (inactive); with A549, 93.5 µM (inactive).

For the compound `CC(=O)Nc1ccc(-c2nnc(SCC(=O)Nc3cccc([N+](=O)[O-])c3)o2)cc1`, the GI50 is 13.5 µM (inactive) in the test with OVCAR-3; 16.8 µM (inactive) with SF-295; 17.1 µM (inactive) in the test with HOP-92; 16.2 µM (inactive) with OVCAR-8; 4.39 µM (inactive) in the test on MOLT-4; 16.5 µM (inactive) in the test on SK-MEL-28. The GI50 was 11.6 µM (inactive) in the test on OVCAR-4; 16.1 µM (inactive) in the test with SN12C; 12.2 µM (inactive) in the test with RXF 393; 15.4 µM in the test on HCT-15; 11.6 µM (inactive) in the test with Malme-3M; 15.8 µM (inactive) with SF-539. Moreover, the GI50 in the test on M14 was 16.1 µM (inactive); in the test on SK-MEL-5, 14 µM (inactive); with A549, 17.5 µM (inactive).

For the compound `O=S1(=O)OCCOS(=O)(=O)C1Br`, the GI50 with OVCAR-3 is > 100 µM (inactive); in the test on SNB-19 it was 64.9 µM (inactive); with SF-295 it was 86.5 µM (inactive); in the test on HOP-92, > 100 µM (inactive); in the test with OVCAR-8 it was > 100 µM (inactive); in the test on MOLT-4, > 100 µM (inactive). Besides, the GI50 in the test with SK-MEL-28, in the test with HCC 2998, in the test with OVCAR-4, in the test on SN12C, in the test on Malme-3M and in the test on SF-539 was > 100 µM (inactive) throughout. The GI50 in the test with M14, with SK-MEL-5 and in the test on A549 was > 100 µM (inactive) throughout.

`O=C1CC2CCCCC2=C1O` (centres undefined): the GI50 in the test with OVCAR-3, in the test on SNB-19, with SF-295, with OVCAR-8, in the test with MOLT-4 and with SK-MEL-28 was > 100 µM (inactive) each time. Moreover, the GI50 in the test on HCC 2998 is > 100 µM (inactive); in the test with OVCAR-4 it was > 100 µM (inactive); with SN12C it was > 100 µM (inactive); with RXF 393 it was > 100 µM (inactive); in the test on HCT-15, above 100 µM; in the test with Malme-3M, > 100 µM (inactive). For the same compound, the GI50 in the test with SF-539, in the test on SK-MEL-5 and in the test on A549 was > 100 µM (inactive) each time.

On to `c1ccc2c(c1)[nH]c1c2nc2ncccn21`, for which the GI50 in the test on SNB-19, in the test on SF-295, in the test with HOP-92, in the test with OVCAR-8, in the test on MOLT-4 and in the test with SK-MEL-28 was > 100 µM (inactive) in each case. Besides, the GI50 in the test with HCC 2998, in the test with OVCAR-4, in the test with SN12C, in the test with RXF 393, in the test with Malme-3M and in the test with SF-539 was > 100 µM (inactive) in each case. Besides, the GI50 in the test with M14, with SK-MEL-5 and with A549 was > 100 µM (inactive) throughout.

These data come from ChEMBL document CHEMBL1201862, “PubChem BioAssay data set” (2004).
